Test results taken from patent US20250313535A1, “ALPHA 4 BETA 7 INTEGRIN MODULATORS AND USES THEREOF” (DICE MOLECULES SV, INC., priority 2022, published 2025).
Like-named read-outs stand apart in the source and are kept apart here.

What was measured:
[1] = molecular target: α4β7 integrin (Homo sapiens (Human), UniProt P13612+P26010); experiment: Integrin Adhesion Assay: Protocol 4 (MAdCAM-coated plate, RPMI-8866 cells with stable LOF mutation of the ITGB1 gene); assay type: cell-based
Method in brief: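 RPMI-8866 cells with CRISPR/Cas9 knockout of ITGB1 (2×10^6/mL) were added to MAdCAM-coated wells with compound (1% DMSO) in HEPES/NaCl buffer with 1 mM MnCl2, 0.1 mM CaCl2 and 1% BSA, then incubated 1 h at 37 °C. After four washes, adherent cells were quantified by CellTiter-Glo luminescence. Percent inhibition versus DMSO and control compound was fitted to 4-parameter curves.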

[2] = molecular target: α4β1 integrin (Homo sapiens (Human), UniProt P05556+P13612); experiment: Integrin Adhesion Assay: Protocol 5 (VCAM-coated plate, RPMI-8866 cells with stable LOF mutation of the ITGB7 gene); assay type: cell-based
Chain of α4β1 integrin (P13612 34-1032): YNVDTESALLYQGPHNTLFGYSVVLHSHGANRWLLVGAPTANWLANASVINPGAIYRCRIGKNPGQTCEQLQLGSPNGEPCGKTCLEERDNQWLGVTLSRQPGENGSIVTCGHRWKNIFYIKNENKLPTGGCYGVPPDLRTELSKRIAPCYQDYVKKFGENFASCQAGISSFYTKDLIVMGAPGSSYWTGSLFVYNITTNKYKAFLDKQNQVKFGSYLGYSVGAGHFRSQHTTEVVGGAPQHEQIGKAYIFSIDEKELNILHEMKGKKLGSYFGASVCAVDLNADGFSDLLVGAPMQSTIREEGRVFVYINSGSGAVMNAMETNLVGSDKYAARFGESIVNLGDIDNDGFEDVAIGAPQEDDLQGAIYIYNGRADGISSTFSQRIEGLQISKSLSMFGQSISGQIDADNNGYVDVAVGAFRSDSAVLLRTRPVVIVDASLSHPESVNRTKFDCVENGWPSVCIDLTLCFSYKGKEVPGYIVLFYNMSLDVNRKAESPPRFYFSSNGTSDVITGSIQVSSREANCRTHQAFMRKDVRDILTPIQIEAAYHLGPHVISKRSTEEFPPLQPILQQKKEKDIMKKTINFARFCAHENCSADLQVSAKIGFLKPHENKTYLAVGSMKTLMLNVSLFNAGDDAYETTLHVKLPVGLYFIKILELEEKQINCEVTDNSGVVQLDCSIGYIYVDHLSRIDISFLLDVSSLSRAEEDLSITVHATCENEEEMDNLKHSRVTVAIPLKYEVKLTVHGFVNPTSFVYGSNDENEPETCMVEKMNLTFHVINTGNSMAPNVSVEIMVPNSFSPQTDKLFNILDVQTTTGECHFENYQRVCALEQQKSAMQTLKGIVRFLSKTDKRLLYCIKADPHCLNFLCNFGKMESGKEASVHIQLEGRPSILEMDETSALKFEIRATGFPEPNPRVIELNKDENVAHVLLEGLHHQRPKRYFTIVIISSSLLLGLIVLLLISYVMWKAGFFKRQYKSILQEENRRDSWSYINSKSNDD
Chain of α4β1 integrin (P05556 21-798): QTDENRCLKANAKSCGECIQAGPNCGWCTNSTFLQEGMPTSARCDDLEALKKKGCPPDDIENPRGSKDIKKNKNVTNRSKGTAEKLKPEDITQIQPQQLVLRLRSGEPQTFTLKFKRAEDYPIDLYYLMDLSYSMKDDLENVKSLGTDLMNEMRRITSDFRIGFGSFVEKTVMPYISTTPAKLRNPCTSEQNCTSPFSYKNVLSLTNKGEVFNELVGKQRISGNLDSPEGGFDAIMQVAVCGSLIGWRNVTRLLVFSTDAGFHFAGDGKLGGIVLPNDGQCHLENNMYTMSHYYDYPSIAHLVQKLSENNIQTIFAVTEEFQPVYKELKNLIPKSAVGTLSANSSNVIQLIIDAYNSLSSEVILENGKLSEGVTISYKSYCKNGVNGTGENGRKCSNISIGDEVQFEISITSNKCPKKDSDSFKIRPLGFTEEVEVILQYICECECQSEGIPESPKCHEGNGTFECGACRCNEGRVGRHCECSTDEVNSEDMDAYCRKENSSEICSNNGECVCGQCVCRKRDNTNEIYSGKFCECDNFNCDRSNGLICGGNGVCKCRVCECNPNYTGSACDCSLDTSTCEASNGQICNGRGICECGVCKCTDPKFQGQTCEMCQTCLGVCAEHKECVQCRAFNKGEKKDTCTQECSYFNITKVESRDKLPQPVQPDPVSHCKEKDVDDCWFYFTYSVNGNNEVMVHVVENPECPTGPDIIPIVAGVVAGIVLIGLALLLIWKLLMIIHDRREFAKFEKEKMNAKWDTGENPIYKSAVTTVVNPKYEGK
Method in brief: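 RPMI-8866 B cells with CRISPR/Cas9 ITGB7 knockout (clonal, verified by flow cytometry) adhered to VCAM-coated wells for 1 h at 37° C in HEPES/NaCl buffer with 1 mM MnCl2, 0.1 mM CaCl2, 1% BSA, 1% DMSO. Bound cells quantified by CellTiter-Glo luminescence after washing; % inhibition versus DMSO and control, 4-parameter fit.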

[3] = Protocol 4, RPMI-8866 cells with LOF mutation of ITGB1, MAdCAM, read-out: Mean IC50 α4β7 KO
[4] = Protocol 5, RPMI-8866 cells with LOF mutation of ITGB7, VCAM, read-out: Mean IC50 α4β1 KO
[5] = RPMI-8866 cells with stable LOF mutation of the ITGB1 gene, read-out: Mean IC50 α4β7 KO^a
[6] = RPMI-8866 cells with stable LOF mutation of the ITGB7 gene, read-out: Mean IC50 α4β1 KO^b

Chain of α4β7 integrin (P13612 34-1032): as the sequence (P13612 34-1032) above
Chain of α4β7 integrin (P26010 20-798): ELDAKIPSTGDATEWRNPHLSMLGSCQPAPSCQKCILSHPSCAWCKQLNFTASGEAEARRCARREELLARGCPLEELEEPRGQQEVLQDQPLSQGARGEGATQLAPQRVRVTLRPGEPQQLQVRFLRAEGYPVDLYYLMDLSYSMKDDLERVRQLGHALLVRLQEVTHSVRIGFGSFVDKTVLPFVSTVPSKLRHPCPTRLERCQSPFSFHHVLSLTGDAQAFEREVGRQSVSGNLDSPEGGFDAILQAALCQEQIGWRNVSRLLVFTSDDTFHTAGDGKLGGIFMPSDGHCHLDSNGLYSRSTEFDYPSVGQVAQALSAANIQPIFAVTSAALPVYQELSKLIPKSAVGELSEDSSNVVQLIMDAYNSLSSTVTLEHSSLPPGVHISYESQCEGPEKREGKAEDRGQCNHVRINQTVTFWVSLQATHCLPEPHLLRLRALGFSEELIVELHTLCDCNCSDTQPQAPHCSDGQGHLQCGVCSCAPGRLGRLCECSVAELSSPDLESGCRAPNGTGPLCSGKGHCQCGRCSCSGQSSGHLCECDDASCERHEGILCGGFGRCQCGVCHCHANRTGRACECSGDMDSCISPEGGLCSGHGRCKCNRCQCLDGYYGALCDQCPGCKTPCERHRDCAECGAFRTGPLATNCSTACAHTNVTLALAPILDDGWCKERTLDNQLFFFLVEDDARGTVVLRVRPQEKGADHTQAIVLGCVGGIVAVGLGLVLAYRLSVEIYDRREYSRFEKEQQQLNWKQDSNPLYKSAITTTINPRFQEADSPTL

SMILES | IC50 [1, 3] [nM] | IC50 [2, 4] [nM] | IC50 [1, 5] [nM] | IC50 [2, 6] [nM]
Cn1c(=O)c(-c2cccc3c(C[C@H](NC(=O)C4(C(F)(F)F)CCNCC4)C(=O)O)cccc23)c(C(F)(F)F)c2ccccc21 [Compound 492] |  |  | 10 to 100 | > 1000
COc1cccc(CN2CCCCC2)c1-c1cccc2c(C[C@H](NC(=O)c3c(F)ccc(F)c3C)C(=O)O)cccc12 [Compound 543] |  |  | < 10 | > 1000
COc1ccc(CN(C)C)c(OC)c1-c1cccc2c(C[C@H](NC(=O)c3c(F)cccc3C3CC3)C(=O)O)cccc12 [Compound 645] |  |  | < 10 | > 1000
O=C(O)[C@H](Cc1cccc2c(-c3nccc4ccc(CCCN5CCC6(CC5)CC6)cc34)cccc12)NC(=O)C1(C(F)(F)F)CCN(C2COC2)CC1 [Compound 773] | < 10 | 100 to 1000 |  | 
O=C(O)[C@H](Cc1cccc2c(-c3nccc4c(CN5CCC(F)(F)C5)cccc34)cccc12)NC(=O)C1(C(F)(F)F)CCN(CC(F)(F)F)CC1 [Compound 594] |  |  | 10 to 100 | > 1000
O=C(O)[C@H](Cc1cccc2c(-c3nccc4c(CN5CCOC(C(F)(F)F)C5)cccc34)cccc12)NC(=O)C1(C(F)(F)F)CCN(CC(F)(F)F)CC1 (some centres unmarked) [Compound 660] |  |  | 10 to 100 | > 1000
O=C(O)[C@H](Cc1cccc2c(-c3ncc(C(=O)N4CCN(C5CC5)CC4)c4ccccc34)cccc12)NC(=O)C1(C(F)(F)F)CCN(CC(F)F)CC1 [Compound 763] | 10 to 100 | > 1000 |  | 
O=C(O)[C@H](Cc1cccc2c(-c3nccc4c(CN5CCCC5)cccc34)cccc12)NC(=O)C1(C(F)(F)F)CCN(CC(F)(F)F)CC1 [Compound 553] |  |  | < 10 | 100 to 1000
COc1cccc(CN2CCCCC2)c1-c1cccc2c(C[C@H](NC(=O)c3c(F)cccc3C(C)C)C(=O)O)cccc12 [Compound 540] |  |  | < 10 | 100 to 1000
O=C(O)[C@H](Cc1cccc2c(-c3nccc4ccc(CN5CCCCC5)cc34)cccc12)NC(=O)C1(C(F)(F)F)CCN(CC(F)(F)F)CC1 [Compound 786] | 10 to 100 | > 1000 |  | 
COc1ccc(CN2CCC(F)(F)CC2)c(OC)c1-c1cccc2c(C[C@H](NC(=O)C3(C(F)(F)F)CCN([C@H]4COC[C@@H]4F)CC3)C(=O)O)cccc12 [Compound 669] |  |  | < 10 | > 1000
COc1ccc(CN(C)C)c(C(F)(F)F)c1-c1cccc2c(C[C@H](NC(=O)C3(C(F)(F)F)CCN(CC(F)(F)F)CC3)C(=O)O)cccc12 [Compound 563] |  |  | < 10 | 100 to 1000
O=C(O)[C@H](Cc1cccc2c(-c3ncc(CN4CCC(C(F)(F)F)CC4)c4ccccc34)cccc12)NC(=O)C1(C(F)(F)F)CCN(C2COC2)CC1 [Compound 580] |  |  | < 10 | > 1000
COc1ccc(CN(C)C)c(OC)c1-c1cccc2c(C[C@H](NC(=O)c3c(F)ccc(F)c3C)C(=O)O)cccc12 [Compound 589] |  |  | < 10 | > 1000
Cn1c(=O)c(-c2cccc3c(C[C@H](NC(=O)C4(C)CC5(CN(CC(F)(F)F)C5)C4)C(=O)O)cccc23)c(C(F)(F)F)c2ccccc21 [Compound 521] |  |  | 100 to 1000 | > 1000
COc1ccc(CN2CC(F)C2)c(OC)c1-c1cccc2c(C[C@H](NC(=O)c3c(C)cccc3F)C(=O)O)cccc12 [Compound 590] |  |  | < 10 | > 1000
CC(N1CCC(C(=O)N[C@@H](Cc2cccc3c(-c4c(C(F)(F)F)c5ccccc5n(C)c4=O)cccc23)C(=O)O)(C(F)(F)F)CC1)C(F)(F)F (some centres unmarked) [Compound 515] |  |  | 100 to 1000 | > 1000
COc1c(CN2CCCCC2)ccc(OC(F)(F)F)c1-c1cccc2c(C[C@H](NC(=O)c3c(C)cccc3F)C(=O)O)cccc12 [Compound 704] | 10 to 100 | > 1000 |  | 
Cc1cccc(F)c1C(=O)N[C@@H](Cc1cccc2c(-c3c(C(F)(F)F)c4cc(CCN5CC(F)C5)ccc4n(C)c3=O)cccc12)C(=O)O [Compound 517] |  |  | < 10 | > 1000
Cn1c(=O)c(-c2cccc3c(C[C@H](NC(=O)C4(C(F)(F)F)CCN(CC(C)(F)F)CC4)C(=O)O)cccc23)c(C(F)(F)F)c2ccccc21 [Compound 534] |  |  | 10 to 100 | 100 to 1000
CN(C)CCc1ccc2c(c1)c(C(F)(F)F)c(-c1cccc3c(C[C@H](NC(=O)C4(C(F)(F)F)CCN(CC(F)(F)F)CC4)C(=O)O)cccc13)c(=O)n2C [Compound 707] | < 10 | 10 to 100 |  | 
Cn1c(=O)c(-c2cccc3c(C[C@H](NC(=O)C4(C)CCCN(CC5COC5)C4)C(=O)O)cccc23)c(C(F)(F)F)c2ccccc21 (some centres unmarked) [Compound 520] |  |  | 100 to 1000 | > 1000
O=C(O)[C@H](Cc1cccc2c(-c3cc(CN4CCCCC4)cc4cccnc34)cccc12)NC(=O)C1(C(F)(F)F)CCN(CC(F)(F)F)CC1 [Compound 732] | 10 to 100 | > 1000 |  | 
COc1ccc2c(c1-c1cccc3c(C[C@H](NC(=O)C4(C(F)(F)F)CCN(CC(F)(F)F)CC4)C(=O)O)cccc13)CN(CC(F)F)CC2 [Compound 753] | 10 to 100 | > 1000 |  | 
Cn1c(=O)c(-c2cccc3c(C[C@H](NC(=O)C4(C(F)(F)F)CCN(C(C)(C)C(F)(F)F)CC4)C(=O)O)cccc23)c(C(F)(F)F)c2ccccc21 [Compound 489] |  |  | 100 to 1000 | > 1000
Cn1c(=O)c(-c2cccc3c(C[C@H](NC(=O)c4c(F)cccc4CN4CCC(C)(C)C4)C(=O)O)cccc23)c(C(F)(F)F)c2ccccc21 [Compound 487] |  |  | 10 to 100 | > 1000

Next, values leading:

IC50 [1, 3] [nM] | IC50 [2, 4] [nM] | IC50 [1, 5] [nM] | IC50 [2, 6] [nM] | SMILES
< 10 | > 1000 |  |  | CC(C)(C)C1CCN(CCc2cnc(-c3cccc4c(C[C@H](NC(=O)C5(C(F)(F)F)CCN(CC(F)(F)F)CC5)C(=O)O)cccc34)c3ccccc23)CC1 [Compound 981]
10 to 100 | > 1000 |  |  | COc1ccc(CN2CC3CCC(C2)O3)c(OC)c1-c1cccc2c(C[C@H](NC(=O)C3(C(F)(F)F)CCN(CC(F)(F)F)CC3)C(=O)O)cccc12 [Compound 845]
< 10 | 100 to 1000 |  |  | COc1c(CN2CCCCC2)ccc(Cl)c1-c1cccc2c(C[C@H](NC(=O)c3c(C)cccc3F)C(=O)O)cccc12 [Compound 1013]
< 10 | 100 to 1000 |  |  | COc1ccc(CN2CCN(C3CCC3)CC2)c(OC)c1-c1cccc2c(C[C@H](NC(=O)C3(C(F)(F)F)CCN(CC(F)(F)F)CC3)C(=O)O)cccc12 [Compound 816]
< 10 | 100 to 1000 |  |  | C[C@@H]1CN(Cc2cnc(-c3cccc4c(C[C@H](NC(=O)C5(C(F)(F)F)CCN(CC(F)(F)F)CC5)C(=O)O)cccc34)c3ccccc23)C[C@H](C)N1C1CC1 [Compound 892]
10 to 100 | > 1000 |  |  | O=C(O)[C@H](Cc1cccc2c(-c3ncc(CN4CCC(C(F)(F)F)CC4)c4ccccc34)cccc12)NC(=O)C1(C(F)(F)F)CCN(CC(F)F)CC1 [Compound 879]
100 to 1000 | > 1000 |  |  | O=C(O)[C@H](Cc1cccc2c(-c3cc(C(F)(F)F)c(CN4CCCCC4)cn3)cccc12)NC(=O)C1(C(F)(F)F)CCN(CC(F)(F)F)CC1 [Compound 891]
10 to 100 | > 1000 |  |  | COc1ccc(CN2CCCC(F)C2)c(C(F)(F)F)c1-c1cccc2c(C[C@H](NC(=O)C3(C(F)(F)F)CCN(CC(F)(F)F)CC3)C(=O)O)cccc12 (some centres unmarked) [Compound 820]
10 to 100 | > 1000 |  |  | COc1cc(CN2CCC[C@@H](F)C2)cc(C(F)(F)F)c1-c1cccc2c(C[C@H](NC(=O)C3(C(F)(F)F)CCN(CC(F)(F)F)CC3)C(=O)O)cccc12 [Compound 849]
10 to 100 | > 1000 |  |  | COc1cccc(CN2CCC(C)(C)CC2)c1-c1cccc2c(C[C@H](NC(=O)C3(C(F)(F)F)CCN(CC(F)(F)F)CC3)C(=O)O)cccc12 [Compound 829]
< 10 | > 1000 |  |  | CC1(C)CCCN(Cc2cnc(-c3cccc4c(C[C@H](NC(=O)C5(C(F)(F)F)CCN(CC(F)F)CC5)C(=O)O)cccc34)c3ccccc23)C1 [Compound 910]
< 10 | > 1000 |  |  | COC1CN(Cc2cnc(-c3cccc4c(C[C@H](NC(=O)C5(C(F)(F)F)CCN(CC(F)(F)F)CC5)C(=O)O)cccc34)c3ccccc23)C1 [Compound 866]
10 to 100 | > 1000 |  |  | Cn1c(=O)c(-c2cccc3c(C[C@H](NC(=O)c4c(F)cccc4F)C(=O)O)cccc23)c(C(F)(F)F)c2cc(CO)ccc21 [Compound 1043]
< 10 | 100 to 1000 |  |  | CC1(C)CCN(Cc2cnc(-c3cccc4c(C[C@H](NC(=O)C5(C(F)(F)F)CCN(CC(F)(F)F)CC5)C(=O)O)cccc34)c3ccccc23)CC1 [Compound 854]
< 10 | > 1000 |  |  | COc1cc(CN2CCCCC2)cnc1-c1cccc2c(C[C@H](NC(=O)c3c(C)cccc3F)C(=O)O)cccc12 [Compound 1018]
10 to 100 | > 1000 |  |  | COc1cccc(CCN2CCC[C@H](F)C2)c1-c1cccc2c(C[C@H](NC(=O)C3(C(F)(F)F)CCN(CC(F)(F)F)CC3)C(=O)O)cccc12 [Compound 964]
< 10 | > 1000 |  |  | COc1ccc(CN2CCC[C@@H](F)C2)c(OC)c1-c1cccc2c(C[C@H](NC(=O)C3(C(F)(F)F)CCN(CC(F)(F)F)CC3)C(=O)O)cccc12 [Compound 841]
